Read-outs that look alike come from different tables or passages of the source.
Columns and labels:
[1] = test system: HL-60/ADR cells (multidrug resistant clone, mdr-1 transfected); test: 3H-thymidine incorporation assay, HL-60/ADR; type: cell-based; details: 48 h incubation, 3H-thymidine pulse 6 h, read-out: IC50, inhibition of cell proliferation, HL-60/ADR
Procedure: (§1) The ability of the compounds to inhibit cancer cell growth was evaluated in promyelocytic leukemia cell line, HL-60, using a ^3H-thymidine incorporation assay. Cells were plated in a 96-well plate at 10-20×10^3 cells/well in RPMI supplemented with 10% fetal bovine serum, 2 mM glutamine, 1% penicillin/streptomycin (complete medium). The caged Garcinia xanthones were added to the cells at increasing concentrations and 0.1% DMSO was added to control cells. Cells were incubated for 48 h and then pulsed with ^3H-thymidine for 6 h. Incorporation of ^3H-thymidine was determined in a scintillation counter (Beckman Coulter Inc., Fullerton, Calif.) after cells were washed and deposited onto glass microfiber filters using a cell harvester M-24 (Brandel, Gaithersburg, Md.). Table 1 provides IC50 values for the natural products gambogic acid and gambogin, forbesione and deoxymorellin.
The compounds were also evaluated in HL-60/ADR cells, a multidrug resistant clone obtained by transfection of HL-60 cells with mdr-1. (See, A. Batova, L. E. Shao, M. B. Diccianni, A. L. Yu, T. Tanaka, A. Rephaeli, A. Nudelman and J. Yu, Blood, 2002, 100, 3319-24). […] Without being bound to any particular theory, it is believed that the caged Garcinia xanthones are not subject to the mechanism of chemo-resistance resulting from the expression of mdr, characteristic of many relapsed cancers. (See, M. M. Gottesman and I. Pastan, Annu. Rev. Biochem., 1993, 62, 385-427; S. Simon, D. Roy and M. Schindler, PNAS, 1994, 91, 1128-1132 and A. K. Larsen, A. E. Escargeuil and A. Skladanowski, Pharmacol. Ther., 2000, 85, 217-229).

[2] = WST assay, cell viability; type: cell-based; details: human, HUVE (human umbilical vein endothelial) cells, 24 h incubation, read-out: IC50, cytotoxicity (WST assay)
Procedure: Cell viability was determined using the WST assay in HUVE (human umbilical vein endothelial) cells that measures metabolic activity of cells alive. Compound 17 was dissolved in DMSO and further diluted with Endothelial Cell Growth Medium (PromoCell, Heidelberg, Germany) to obtain a final concentration as indicated. HUVE cells (PromoCell, Heidelberg, Germany) were seeded into each well of a 96-well cell culture plate at 7000 cells per well and incubated at 37° C. for 24 h with the indicated concentrations of each compound. The final volume was 100 μL per well. Control samples were incubated with the solvent alone. Each experiment was repeated in triplicate. Afterwards the WST-1 reagent was added to the cells at 10 μL per well and the cells further incubated at 37° C. for additional 3 h. Then the cell culture plate was agitated thoroughly for 1 minute on a shaker at 200 U/min. The absorbance of each sample was measured using a microplate reader at 440 nm. The reference wavelength was 690 nm.

HT29 (colon) = test: Trypan-blue exclusion assay, HT29; type: cell-based
A549 (lung) = test: Trypan-blue exclusion assay, A549; type: cell-based
[3] = test system: CEM T-cell acute lymphoblastic leukemia cell line; test: Trypan-blue exclusion assay, CEM; type: cell-based; details: Homo sapiens, read-out: IC50 (μM), CEM leukemia
Procedure: (§2) Compounds such as desoxymorellin, gambogic acid, gambogin and 17 were further evaluated in a panel of solid and non-solid tumor cell lines. CEM cells were plated in a 24-well plate in complete media at 50×10^3 cells/well. Cells were treated with gambogin at concentrations of 0.25, 0.5, 1.0 μM or with 0.1% DMSO (control cells). Cells were incubated for 4 days and then the number of viable cells was determined after the addition of trypan-blue dye by counting the cells which exclude trypan-blue in a hemocytometer. Data for inhibition of cell proliferation is provided in.

M21 (melanoma) = test: Trypan-blue exclusion assay, M21; type: cell-based
Procedure: as §2

[4] = test system: HL-60 promyelocytic leukemia cell line; test: 3H-thymidine incorporation assay, HL-60; type: cell-based; details: HL-60, 48 h incubation, 3H-thymidine pulse 6 h, read-out: IC50, inhibition of cell proliferation, HL-60
Procedure: as §1

[5] = Animal study, body weight/toxicity in SCID mice injected with primary human leukemia cells; type: in vivo; details: IV injections
Procedure: SCID mice were injected with primary human leukemia cells. Seven days following injection of leukemia cells, mice were given IV injections of gambogic acid, gambogic acid analog (17), or PBS (control). Each treatment group contained 3 mice which were monitored for body weight upon each injection.

HUVE cells = test: Apoptosis assay (Cell Death Detection ELISA PLUS); type: cell-based, human
Procedure: The compounds were dissolved in DMSO and further diluted with Endothelial Cell Growth Medium (PromoCell, Heidelberg, Germany) to obtain final concentrations as indicated. HUVE cells were seeded into each well of a 96-well cell culture plate at 10000 cells per well and incubated at 37° C. for 10 h with the indicated concentrations of each compound. The final volume was 100 μL per well. Control samples were incubated with the solvent alone. Each sample was repeated three times. The proapoptotic effect was detected by using the Cell Death Detection ELISA^PLUS kit (Roche Diagnostics GmbH, Mannheim, Germany) according to the manufactor's instructions. The kit constitutes a photometric enzyme-immunoassay for the qualitative and quantitative in vitro determination of cytoplasmic histone-associated-DNA-fragments (mono- and oligo-nucleosomes) after induced cell death. Due to the working procedure the kind of cell death (apoptosis or necrosis) […]. The absorption values A (A405nm-A490nm) measured give a quantitative indication of the induced amount of apoptosis/necrosis. The higher the absorption A, the higher the induction of apoptosis/necrosis at the corresponding concentrations of the compounds.

PC3 (prostate) = test: Trypan-blue exclusion assay, PC3; type: cell-based
MCF-7 (breast) = test: Trypan-blue exclusion assay, MCF-7; type: cell-based
[6] = test system: (HeLa) Henrietta Lacks cervical cancer cells; details: cited from earlier work
[7] = test system: HEL (Human Embryonic Lung fibroplasts); details: cited from earlier work

| Compound | IC50 ([1]; Homo sapiens, HL60/ADR) [nM] | IC50 (HT29 (colon); Homo sapiens, HT-29) [µM] | IC50 (A549 (lung); Homo sapiens) [µM] | IC50 ([3]; 96 h, CEM, 4 days incubation) [µM] | IC50 (M21 (melanoma); Homo sapiens) [µM] | IC50 ([4]; Homo sapiens) [nM] | toxicity (body weight) compared to PBS control [5] | IC50 [1] [nM] | IC50 [4] [nM] | IC50 (PC3 (prostate); Homo sapiens, PC-3) [µM] | IC50 (MCF-7 (breast); Homo sapiens, MCF7) [µM] | other results |
| --- | --- | --- | --- | --- | --- | --- | --- | --- | --- | --- | --- | --- |
| CC(C)=CCC12OC(C)(C)C3CC(C=C4C(=O)c5ccccc5OC431)C2=O (stereo not drawn) [Compound 17] | 1400 | 3.1 | > 4 | 0.3 | 2.2 | 1500 | no significant toxicity |  |  |  |  | IC50 at 24 h [2]: 1380 nM; subset of cells with necrosis (HUVE cells; HUVE cells, concentrations >3 μM, 10 h): ~10%; cell necrosis (HUVE cells; HUVE cells, concentrations lower than 1.5 μM, 10 h): not detected; HUVE cells undergoing apoptosis (HUVE cells; after 10 h, dose-dependent): > 90% |
| CC(C)=CCc1c(O)cc(O)c2c1O[C@]13C(=C[C@@H]4C[C@H]1C(C)(C)O[C@@]3(CC=C(C)C)C4=O)C2=O [Forbesione] |  |  |  |  |  |  |  | 2000 | 2200 |  |  |  |
| CC(C)=CCc1c2c(c(O)c3c1O[C@@]14C(=C[C@H]5CC1C(C)(C)O[C@]4(CC=C(C)C)C5=O)C3=O)C=CC(C)(C)O2 [desoxymorellin] |  |  |  |  |  |  |  | 1100 | 1000 |  |  | IC50 (HT29 (colon); HT29): 1.2 µM; IC50 (PC3 (prostate); PC3): 1.2 µM; IC50 (A549 (lung)): 2.1 µM; IC50 (M21 (melanoma)): 1.6 µM; IC50 (MCF-7 (breast); MCF-7): 0.9 µM |
| CC(C)=CCC[C@]1(C)C=Cc2c(O)c3c(c(CC=C(C)C)c2O1)O[C@]12C(=C[C@@H]4C[C@H]1C(C)(C)O[C@@]2(C/C=C(/C)C(=O)O)C4=O)C3=O [gambogic acid] | 500 | 0.7 | 1.8 | 0.15 | 1.2 | 300 | some toxicity |  |  | 0.4 | 0.4 |  |
| CC(C)=CCCC1(C)C=Cc2c(O)c3c(c(CC=C(C)C)c2O1)O[C@]12C(=CC4C[C@H]1C(C)(C)OC2(CC=C(C)C)C4=O)C3=O (stereo partly drawn) [gambogin] | 1100 | 1 | 1.8 |  | 1 | 800 |  |  |  | 1.1 | 1.1 | IC50 ([3]; CEM-4, 96 h): 0.35 µM |
| CC(C)=CCc1c2c(c(O)c3c1O[C@]14C(=C[C@@H]5C[C@H]1C(C)(C)O[C@@]4(C/C=C(/C)C=O)C5=O)C3=O)C=CC(C)(C)O2 [morellin] |  |  |  |  |  |  |  |  |  |  |  | cytotoxicity against HeLa [6]: good cytotoxicity; cytotoxicity against HEL [7]: good cytotoxicity |
